Laboratory results from US20090093454A1, “Chemical Compounds” (priority 2005, published 2009).

These compounds were tested on HIV-1 (assay: HIV infectivity assay (Table 2, strain not given)). Conditions: Human immunodeficiency virus 1, read-out: Activity Level.
Type: cell-based
Procedure: (§1) Compounds were profiled against two HIV-1 viruses, the M-tropic (CCR5 utilizing) Ba-L strain and the T-tropic (CXCR4 utilizing) IIIB strain. Both viruses were propagated in human peripheral blood lymphocytes. Compounds were tested for there ability to block infection of the HOS cell line (expressing hCXCR4/hCCR5/hCD4/pHIV-LTR-luciferase) by either HIV-1 Ba-L or HIV-1, IIIB. Compound cytotoxicity was also examined in the absence of virus addition.
(§2) HOS cells (expressing hCXCR4/hCCR5/hCD4/pHIV-LTR-luciferase) were harvested and diluted in Dulbeccos modified Eagles media supplemented with 2% FCS and non-essential amino acid to a concentration of 60,000 cells/ml. The cells were plated into 96-well plates (100 ul per well) and the plates were placed in a tissue culture incubator (37° C.; 5% CO2/95% air) for a period of 24 h.
Subsequently, 50 ul of the desired drug solution (4 times the final concentration) was added to each well and the plates were returned to the tissue culture incubator (37° C.; 5% CO2/95% air) for 1 h. Following this incubation 50 ul of diluted virus was added to each well (approximately 2 million RLU per well of virus). The plates were returned to the tissue culture incubator (37° C.; 5% CO2/95% air) and were incubated for a further 96 h.
Following this incubation the endpoint for the virally infected cultures was quantified following addition of Steady-Glo Luciferase assay system reagent (Promega, Madison, Wis.). Cell viability or non-infected cultures was measured using a CellTiter-Glo luminescent cell viability assay system (Promega, Madison, Wis.). All luminescent readouts are performed on a Topcount luminescence detector (Packard, Meridien, Conn.).
as §1, with “Ba-L was” for “Both viruses were”, “either peripheral blood lymphocytes or SupT1/CCR5+/CXCR4+ cells. IIIB was propagated in” for “human”, “their” for “there”
as §2, with “FCS” for “FCS and non-essential amino acid”, “120,000” for “60,000”, “(50 μl” for “(100 ul”, “(370°” for “(37°”
Subsequently, 50 μl of the desired drug solution (2 times the final concentration) was added to each well and the plates were returned to the tissue culture incubator (370° C.; 5% CO2/95% air) for 1 h. Following this incubation, 60 μl of diluted virus (4 times the final concentration) was added to 60 μl of 2× the final desired concentration of the compound and 100 μl of this compound/virus mix was added to each well (approximately 2 million RLU per well of virus). The plates were returned to the tissue culture incubator (370° C.; 5% CO2/95% air) and were incubated for a further 96 h.

| SMILES | IC50 [nM] |
| --- | --- |
| CNCCCN(C)c1cccc2nc(CN3CCC[C@H]4CCc5cccnc5[C@H]43)cn12 [Example 81, N-{2-[(4aR,10bS)-3,4,4a,5,6,10b-hexahydro-1,10-phenanthrolin-1(2H)-ylmethyl]imidazo[1,2-a]pyridin-5-yl}-N,N′-dimethyl-1,3-propanediamine] | < 100 |
| CC(C)N1CCN(c2cccc3nc(CN4CCC[C@H]5CCc6cccnc6[C@H]54)cn23)CC1 [Example 82, (4aR,10bS)-1-({5-[4-(1-methylethyl)-1-piperazinyl]imidazo[1,2-a]pyridin-2-yl}methyl)-1,2,3,4,4a,5,6,10b-octahydro-1,10-phenanthroline] | < 100 |
| CN(C)C1CCN(c2cccc3nc(CN4CCC[C@H]5CCc6cccnc6[C@H]54)cn23)C1 (stereo partly drawn) [Example 83, 1-{2-[(4aR,10bS)-3,4,4a,5,6,10b-hexahydro-1,10-phenanthrolin-1(2H)-ylmethyl]imidazo[1,2-a]pyridin-5-yl}-N,N-dimethyl-3-pyrrolidinamine] | < 100 |
| NCC1CCN(c2cccc3nc(CN4CCC[C@H]5CCc6cccnc6[C@H]54)cn23)CC1 [Example 85, [(1-{2-[(4aR,10bS)-3,4,4a,5,6,10b-hexahydro-1,10-phenanthrolin-1(2H)-ylmethyl]imidazo[1,2-a]pyridin-5-yl}-4-piperidinyl)methyl]amine] | < 100 |
| CN(C)CC1CCN(c2cccc3nc(CN4CCC[C@H]5CCc6cccnc6[C@H]54)cn23)CC1 [Example 86, [(1-{2-[(4aR,10bS)-3,4,4a,5,6,10b-hexahydro-1,10-phenanthrolin-1(2H)-ylmethyl]imidazo[1,2-a]pyridin-5-yl}-4-piperidinyl)methyl]dimethylamine] | < 100 |
| c1cnc2c(c1)CC[C@@H]1CCCN(Cc3cn4c(N5CCCNCC5)cccc4n3)[C@H]21 [Example 87, (4aR,10bS)-1-{[5-(hexahydro-1H-1,4-diazepin-1-yl)imidazo[1,2-a]pyridin-2-yl]methyl}-1,2,3,4,4a,5,6,10b-octahydro-1,10-phenanthroline] | < 100 |
| NC1CCN(c2cccc3nc(CN4CCC[C@H]5CCc6cccnc6[C@H]54)cn23)CC1 [Example 89, 1-{2-[(4aR,10bS)-3,4,4a,5,6,10b-hexahydro-1,10-phenanthrolin-1(2H)-ylmethyl]imidazo[1,2-a]pyridin-5-yl}-4-piperidinamine] | < 100 |
| CN(C)CCNc1cccc2nc(CN3CCC[C@H]4CCc5cccnc5[C@H]43)cn12 [Example 90, N′-{2-[(4aR,10bS)-3,4,4a,5,6,10b-hexahydro-1,10-phenanthrolin-1(2H)-ylmethyl]imidazo[1,2-a]pyridin-5-yl}-N,N-dimethyl-1,2-ethanediamine] | 100 to 500 |
| NCCN1CCN(c2cccc3nc(CN4CCC[C@H]5CCc6cccnc6[C@H]54)cn23)CC1 [Example 92, [2-(4-{2-[(4aR,10bS)-3,4,4a,5,6,10b-hexahydro-1,10-Phenanthrolin-1(2H)-ylmethyl]imidazo[1,2-a]pyridin-5-yl}-1-piperazinyl)ethyl]amine] | < 100 |
| CN1CCCN(c2cccc3nc(CN4CCC[C@H]5CCc6cccnc6[C@H]54)cn23)CC1 [Example 93, (4aR,10bS)-1-{[5-(4-methylhexahydro-1H-1,4-diazepin-1-yl)imidazo[1,2-a]pyridin-2-yl]methyl}-1,2,3,4,4a,5,6,10b-octahydro-1,10-phenanthroline] | < 100 |
| CNC1CCN(c2cccc3nc(CN4CCC[C@H]5CCc6cccnc6[C@H]54)cn23)C1 (stereo partly drawn) [Example 95, 1-{2-[(4aR,10bS)-3,4,4a,5,6,10b-hexahydro-1,10-phenanthrolin-1(2H)-ylmethyl]imidazo[1,2-a]pyridin-5-yl}-N-methyl-3-pyrrolidinamine] | < 100 |
| NC1CN(c2cccc3nc(CN4CCC[C@H]5CCc6cccnc6[C@H]54)cn23)C1 [Example 97, 1-{2-[(4aR,10bS)-3,4,4a,5,6,10b-hexahydro-1,10-phenanthrolin-1(2H)-ylmethyl]imidazo[1,2-a]pyridin-5-yl}-3-azetidinamine] | < 100 |
| CN(C)C1CN(c2cccc3nc(CN4CCC[C@H]5CCc6cccnc6[C@H]54)cn23)C1 [Example 98, 1-{2-[(4aR,10bS)-3,4,4a,5,6,10b-hexahydro-1,10-phenanthrolin-1(2H)-ylmethyl]imidazo[1,2-a]pyridin-5-yl}-N,N-dimethyl-3-azetidinamine] | 100 to 500 |
| COCCN1CCN(c2cccc3nc(CN4CCC[C@H]5CCc6cccnc6[C@H]54)cn23)CC1 [Example 99, (4aR,10bS)-1-[(5-{4-[2-(methyloxy)ethyl]-1-piperazinyl}imidazo[1,2-a]pyridin-2-yl)methyl]-1,2,3,4,4a,5,6,10b-octahydro-1,10-phenanthroline] | < 100 |
| CN(C)[C@H]1CCN(c2cccc3nc(CN4CCC[C@H]5CCc6cccnc6[C@H]54)cn23)C1 [Example 100, (3S)-1-{2-[(4aR,10bS)-3,4,4a,5,6,10b-hexahydro-1,10-phenanthrolin-1(2H)-ylmethyl]imidazo[1,2-a]pyridin-5-yl}-N,N-dimethyl-3-pyrrolidinamine] | < 100 |
| O=C(CN1CCN(c2cccc3nc(CN4CCC[C@H]5CCc6cccnc6[C@H]54)cn23)CC1)N1CCCC1 [Example 101, (4aR,10bS)-1-[(5-{4-[2-oxo-2-(1-pyrrolidinyl)ethyl]-1-piperazinyl}imidazo[1,2-a]pyridin-2-yl)methyl]-1,2,3,4,4a,5,6,10b-octahydro-1,10-phenanthroline] | < 100 |
| CN(C)C(=O)CN1CCN(c2cccc3nc(CN4CCC[C@H]5CCc6cccnc6[C@H]54)cn23)CC1 [Example 102, 2-(4-{2-[(4aR,10bS)-3,4,4a,5,6,10b-hexahydro-1,10-phenanthrolin-1(2H)-ylmethyl]imidazo[1,2-a]pyridin-5-yl}-1-piperazinyl)-N,N-dimethylacetamide] | < 100 |
| OCCN1CCN(c2cccc3nc(CN4CCC[C@H]5CCc6cccnc6[C@H]54)cn23)CC1 [Example 103, 2-(4-{2-[(4aR,10bS)-3,4,4a,5,6,10b-hexahydro-1,10-phenanthrolin-1(2H)-ylmethyl]imidazo[1,2-a]pyridin-5-yl}-1-piperazinyl)ethanol] | < 100 |
| CN1CCCC1CCNc1cccc2nc(CN3CCC[C@H]4CCc5cccnc5[C@H]43)cn12 (stereo partly drawn) [Example 104, 2-[(4aR,10bS)-3,4,4a,5,6,10b-hexahydro-1,10-phenanthrolin-1(2H)-ylmethyl]-N-[2-(1-methyl-2-pyrrolidinyl)ethyl]imidazo[1,2-a]pyridin-5-amine] | < 100 |
| CN(C)[C@@H]1CCN(c2cccc3nc(CN4CCC[C@H]5CCc6cccnc6[C@H]54)cn23)C1 [Example 105, (3R)-1-{2-[(4aR,10bS)-3,4,4a,5,6,10b-hexahydro-1,10-phenanthrolin-1(2H)-ylmethyl]imidazo[1,2-a]pyridin-5-yl}-N,N-dimethyl-3-pyrrolidinamine] | < 100 |
| c1cnc2c(c1)CC[C@@H]1CCCN(Cc3cn4c(N5CCN6CCC[C@H]6C5)cccc4n3)[C@H]21 [Example 106, (4aR,10bS)-1-({5-[(8aS)-hexahydropyrrolo[1,2-a]pyrazin-2(1H)-yl]imidazo[1,2-a]pyridin-2-yl}methyl)-1,2,3,4,4a,5,6,10b-octahydro-1,10-phenanthroline] | < 100 |
| N[C@H]1CCN(c2cccc3nc(CN4CCC[C@H]5CCc6cccnc6[C@H]54)cn23)C1 [Example 107, (3S)-1-{2-[(4aR,10bS)-3,4,4a,5,6,10b-hexahydro-1,10-phenanthrolin-1(2H)-ylmethyl]imidazo[1,2-a]pyridin-5-yl}-3-pyrrolidinamine] | < 100 |
| OCCN1CCCN(c2cccc3nc(CN4CCC[C@H]5CCc6cccnc6[C@H]54)cn23)CC1 [Example 108, 2-(4-{2-[(4aR,10bS)-3,4,4a,5,6,10b-hexahydro-1,10-phenanthrolin-1(2H)-ylmethyl]imidazo[1,2-a]pyridin-5-yl}hexahydro-1H-1,4-diazepin-1-yl)ethanol] | < 100 |
